From patent US20060122137A1, “5'-methylpyrimidine and 2'-O-methyl ribonucleotide modified double-stranded ribonucleic acid molecules” (Nastech Pharmaceutical Company Inc., priority 2003, published 2006)

How the values were obtained:
[1] = system: ribonucleases present in rat plasma; test: Stability of siRNA in rat plasma (PAGE gel, densitometry); format: in vitro ADME; conditions: for Stability Ranking: rat plasma 37° C.; for level of degradation on PAGE gel after treatment with plasma: fresh rat plasma, 37° C., time points 0, 30, 60 and 20 min
Protocol: At various time points (0, 30, 60 and 20 min), 50 μ*l of the mixture was taken out and immediately extracted by phenol:chloroform. SiRNAs were dried following precipitation by adding 2.5 volume of isopropanol alcohol and subsequent washing step with 70% ethanol. After dissolving in water and gel loading buffer the samples were analyzed on 20% polyacrylamide gel, containing 7 M urea and visualized by ethidium bromide staining and quantitated by densitometry.
The purpose of this experiment was to determine whether 2′-O-methyl modified ribonucleotides and the substitution of uridines with ribothymidines (5-methyluridine) provide for greater siRNA stability against rat plasma ribonucleases.
At various time points (0, 30, 60 and 20 min), 50 μl of the mixture was taken out and immediately extracted by phenol:chloroform. siRNAs were dried following precipitation by adding 2.5 volume of isopropanol alcohol and subsequent washing step with 70% ethanol. After resuspending in water and gel loading buffer the samples were analyzed gel electrophoresis on a 20% polyacrylamide gel, containing 7 M urea and subsequently visualized by ethidium bromide staining and quantified by densitometry.

[2] = system: interferon response; test: Interferon response in vitro; format: cell-based
Protocol: Interferon responsiveness is a potential side-effect of tranfecting cells with siRNAs. Thus, a study was performed in vitro to assess whether various isoforms of the LC20 siRNA would elicit an interferon response. Both unmodified and modified of the 19-mer LC20 siRNA and 21-mer LC20 siRNA were tested.

[3] = Thermal melting profiles (Tm) of β-gal siRNA duplexes; format: physicochemical; conditions: for Avg. Tm from 1st Exp. / Tm: 1st experiment; for Avg. Tm from 2nd Exp.: 2nd (duplicate) experiment; for melting temperature higher than the wild type (duplex I): versus duplex I; for melts at a temperature of: text summary of Table 7
Text: The purpose of this experiment was to determine the effect of incorporating ribothymidines in a double stranded RNA molecule in place of uridines on the melting temperature (TM) of the siRNA molecule. A higher Tm correlates with increased siRNA duplex stability.
To determine the effect of replacing uridines with ribothymidines in the siRNA duplex upon melting temperature, thermal melting profiles were generated for four β-galactosidase (β-gal) siRNA molecules (table 5). These four β-gal siRNA duplexes differ only by the presence or absence of ribothymidines in the siRNA duplex. Where rT is 5-methyluridine.
The stock solutions of single stranded oligonucleotides were prepared by dissolving the selected sequences in 400 μL 10 mM buffer phosphate pH 7.0 containing 0.1 M NaCl and 0.1 mM EDTA and diluted (1 μL to 200 μL) with water and absorbencies (A260) were measured and the contents were calculated. Also the integrity of the oligonucleotides was confirmed by HPLC analysis. To prepare the siRNA duplexes, the single stranded oligonucleotides were mixed and allowed to anneal. The UV absorption (A260) for each siRNA duplex was measured and their value are as follows: I (0.28), II (0.54), III (0.31), and IV (0.45). To test for reproducibility, the melting profile study was done in duplicate.
The thermal melting profiles of the duplexes I, II, III and IV were recorded on Shimadzu UV-VIS 1601 with thermoelectrically temperature controlled through the Peltier device. The temperature was changed at the rate of 0.5° C./minute from 90° C. to 25° C. while the absorption recorded at 260 nm. The reverse experiment is also repeated. The “melting” process is a physical phenomenon. Therefore, the generated profile (90° to 25°) ought to be superimposed on the reverse ([…] to 90°).
Differential curves were used to determine the melting point (Tm) of the duplexes. The shape of the curve defined by the derivative of a curve (versus 1/T) was used to make a robust determination of Tm and other thermodynamic data. Shimadzu TMSPC-8 and its associated software performed the needed calculations.

LC20-WT: Unmodified: 5′-GGGUCGGAACCCAAGCUUA dTdT-3′ / 3′-dAdT CCCAGCCUUGGGUUCGAAU-p-5′
Stability Ranking ([1]; LC13 siRNAs (Table 4)): 4
Stability Ranking ([1]; LC20 siRNAs (Table 3)): 4
interferon response [2]: did not elicit an interferon response

I (WT): unmodified β-gal siRNA: CUACACAAAUCAGCGAUUU TT / TT GAUGUGUUUAGUCGCUAAA (sense CUACACAAAUCAGCGAUUUTT; antisense TTGAUGUGUUUAGUCGCUAAA; chemistry not fully specified; one strand is listed 3' to 5') [reference compound]
level of degradation on PAGE gel after treatment with plasma [1]: begins to degrade almost immediately
Avg. Tm from 1st Exp. [3]: 64.9 °C
Avg. Tm from 2nd Exp. [3]: 64.9 °C
Tm ([3]; Down profile): 65.6 °C
Tm ([3]; Up profile): 64.3 °C

LC20-MD23: 5′-GGGT^rCGGAACCCAAGCT^r U^MeOA^MeOdTdT-3′ / 3′-CCCAGCCUUGGGUUCGAAU-p-5′
Stability Ranking ([1]; LC20 siRNAs (Table 3)): 3

III: β-gal siRNA, rT incorporated in the anti-sense strand only (SEQ ID NO:5/6) (chain 1 CNACACAAANCAGCGANNNTT; chain 2 AAANCGCNGANNNGNGNAGTT; RNA at 1, 2, 3, 4, 5, 6, 7, 8, 9, 10, 11, 12, 13, 14, 15, 16, 17, 18, 19, other sugars, backbone and the base at N not given here; ribothymidine replaces uracil in antisense strand only)
Avg. Tm from 1st Exp. [3]: 72.4 °C
Avg. Tm from 2nd Exp. [3]: 69.8 °C
Tm ([3]; Down profile): 72.9 °C
Tm ([3]; Up profile): 71.9 °C
melting temperature higher than the wild type (duplex I) [3]: approximately 4.9 °C

IV: β-gal siRNA, rT incorporated in the sense strand only (SEQ ID NO:3/4) (chain 1 CTACACAAATCAGCGATTTTT; chain 2 AAAUCGCUGAUUUGUGUAGTT; chain 1: RNA at 2, 10, 17, 18, 19, other sugars and backbone not given here; chain 2: RNA at 4, 8, 11, 12, 13, 15, 17, other sugars and backbone not given here; positions 1-19 ribonucleotides, further chemistry not fully specified)
level of degradation on PAGE gel after treatment with plasma [1]: little to no degradation
Avg. Tm from 1st Exp. [3]: 67.8 °C
Avg. Tm from 2nd Exp. [3]: 67.8 °C
Tm ([3]; Down profile): 67.8 °C
Tm ([3]; Up profile): 67.8 °C
melts at a temperature of [3]: 67.8 °C
melting temperature higher than the wild type (duplex I) [3]: 2.9 °C

II: β-gal siRNA, all uracils in both strands changed to ribothymidine (SEQ ID NO:1/2) (chain 1 CNACACAAANCAGCGANNNTT; chain 2 AAANCGCNGANNNGNGNAGTT; RNA at 1, 2, 3, 4, 5, 6, 7, 8, 9, 10, 11, 12, 13, 14, 15, 16, 17, 18, 19, other sugars, backbone and the base at N not given here; all uracils replaced by ribothymidine in both strands)
level of degradation on PAGE gel after treatment with plasma [1]: little to no degradation
Avg. Tm from 1st Exp. [3]: 72.35 °C
Avg. Tm from 2nd Exp. [3]: 72.25 °C
Tm ([3]; Down profile): 72.8 °C
Tm ([3]; Up profile): 71.9 °C
melts at a temperature of [3]: about 72.3 °C
melting temperature higher than the wild type (duplex I) [3]: 7.4 °C

LC20-19mer: No 3′ overhangs and unmodified: 5′-GGGUCGGAACCCAAGCUUA-3′ / 3′-CCCAGCCUUGGGUUCGAAU-p-5′ (siRNA; 5' phosphate on antisense, chemistry not fully specified; one strand is listed 3' to 5')
Stability Ranking ([1]; LC20 siRNAs (Table 3)): 4
interferon response [2]: did not elicit an interferon response
